# Target: GST-hMDM2 (aa 1-188) / biotinylated-p53 (aa 1-83) (Homo sapiens (Human), UniProt Q00987)
# Assay: Homogenous Time-Resolved Fluorescence Assay (HTRF2 assay), inhibition of HDM2-p53 interaction
# Type: binding
# Conditions: 0.2 nM GST-hMDM2 (1-188), 0.5 nM biotinylated-p53 (1-83), 0.18 nM SA-XLent, 100 mM KF
# Description: Residues 1-83 of human p53 were expressed as an amino-terminal AviTag™-TrxA-6×His fusion protein (biotinylated p53) in E. coli. Each protein was purified from cell paste by affinity chromatography.
# Specifically, 10 uL of GST-hMDM2 was incubated with 10 ul of diluted compound (various concentrations, serially diluted) in 10% DMSO for 20 minutes at room temperature. 20 uL of biotinylated-p53 was added to the GST-hMDM2+compound mixture, and then incubated at room temperature for 60 min. 10 uL of detection buffer consisting of SA-XLent, anti-GST cryptate antibody and KF was added to GST-hMDM2, biotinylated-p53 and compound reaction and left at room temperature to reach equilibrium for >4 hrs. The final concentration of DMSO in the reaction was 2%. Time-resolved fluorescence readings were measured on a microplate multilabel reader. Percentage of inhibition was calculated relative to nutlin-3.
# Sequence of GST-hMDM2 (aa 1-188) / biotinylated-p53 (aa 1-83) (Q00987 1-188): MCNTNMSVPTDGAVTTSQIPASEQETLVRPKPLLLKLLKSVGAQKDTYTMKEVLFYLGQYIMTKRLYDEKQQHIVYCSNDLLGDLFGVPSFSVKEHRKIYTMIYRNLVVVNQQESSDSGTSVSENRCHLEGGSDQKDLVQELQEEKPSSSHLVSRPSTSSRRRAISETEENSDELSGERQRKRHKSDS
row,IC50 [nM],SMILES
1,0.121,"CC(C)(C)S(=O)(=O)C[C@H](C1CC1)N1C(=O)[C@@](C)(Cc2ncc(C(=O)O)s2)O[C@H](c2cccc(Cl)c2)[C@H]1c1ccc(Cl)c(F)c1 (single isomer, unassigned) [Example 5, 2-(((2R,5R,6R)-4-((S)-2-(tert-Butylsulfonyl)-1-cyclopropylethyl)-5-(4-chloro-3-fluorophenyl)-6-(3-chlorophenyl)-2-methyl-3-oxomorpholin-2-yl)methyl)thiazole-5-carboxylic acid or 2-(((2S,5R,6R)-4-((S)-2-(tert-butylsulfonyl)-1-cyclopropylethyl)-5-(4-chloro-3-fluorophenyl)-6-(3-chlorophenyl)-2-methyl-3-oxomorpholin-2-yl)methyl)thiazole-5-carboxylic acid]"
2,1.85,"CC(C)(C)S(=O)(=O)C[C@H](C1CC1)N1C(=O)[C@@](C)(Cc2ccc(C(=O)O)c[n+]2[O-])O[C@H](c2cccc(Cl)c2)[C@H]1c1ccc(Cl)cc1 (single isomer, unassigned) [Example 4, 2-(((2R,5R,6R)-4-((S)-2-(tert-butylsulfonyl)-1-cyclopropylethyl)-6-(3-chlorophenyl)-5-(4-chlorophenyl)-2-methyl-3-oxomorpholin-2-yl)methyl)-5-carboxypyridine 1-oxide or 2-(((2S,5R,6R)-4-((S)-2-(tert-butylsulfonyl)-1-cyclopropylethyl)-6-(3-chlorophenyl)-5-(4-chlorophenyl)-2-methyl-3-oxomorpholin-2-yl)methyl)-5-carboxypyridine 1-oxide]"

# More lines, now with the values behind:
row,SMILES,IC50 [nM]
1,"CC(C)(C)S(=O)(=O)C[C@H](C1CC1)N1C(=O)[C@@](C)(Cc2ccc(C(=O)O)cn2)O[C@H](c2cccc(Cl)c2)[C@H]1c1ccc(Cl)c(F)c1 (single isomer, unassigned) [Example 6, 6-(((2R,5R,6R)-4-((S)-2-(tert-Butylsulfonyl)-1-cyclopropylethyl)-5-(4-chloro-3-fluorophenyl)-6-(3-chlorophenyl)-2-methyl-3-oxomorpholin-2-yl)methyl)nicotinic acid or 6-(((2S,5R,6R)-4-((S)-2-(tert-butylsulfonyl)-1-cyclopropylethyl)-5-(4-chloro-3-fluorophenyl)-6-(3-chlorophenyl)-2-methyl-3-oxomorpholin-2-yl)methyl)nicotinic acid]",0.11
2,"CC(C)(C)S(=O)(=O)C[C@H](C1CC1)N1C(=O)[C@@](C)(Cc2ccc(C(=O)O)cn2)O[C@H](c2cccc(Cl)c2)[C@H]1c1ccc(Cl)c(F)c1 (single isomer, unassigned) [Example 7, 6-(((2R,5R,6R)-4-((S)-2-(tert-butylsulfonyl)-1-cyclopropylethyl)-5-(4-chloro-3-fluorophenyl)-6-(3-chlorophenyl)-2-methyl-3-oxomorpholin-2-yl)methyl)nicotinic acid or 6-(((2S,5R,6R)-4-((S)-2-(tert-butylsulfonyl)-1-cyclopropylethyl)-5-(4-chloro-3-fluorophenyl)-6-(3-chlorophenyl)-2-methyl-3-oxomorpholin-2-yl)methyl)nicotinic acid]",< 0.1
3,"CC(C)(C)S(=O)(=O)C[C@H](C1CC1)N1C(=O)[C@](C)(Cc2ccc(C(=O)O)c[n+]2[O-])O[C@H](c2cccc(Cl)c2)[C@H]1c1ccc(Cl)cc1 (single isomer, unassigned) [Example 3, 2-(((2S,5R,6R)-4-((S)-2-(tert-Butylsulfonyl)-1-cyclopropylethyl)-6-(3-chlorophenyl)-5-(4-chlorophenyl)-2-methyl-3-oxomorpholin-2-yl)methyl)-5-carboxypyridine 1-oxide or 2-(((2R,5R,6R)-4-((S)-2-(tert-Butylsulfonyl)-1-cyclopropylethyl)-6-(3-chlorophenyl)-5-(4-chlorophenyl)-2-methyl-3-oxomorpholin-2-yl)methyl)-5-carboxypyridine 1-oxide]",0.23

# Source: patent publication US9758495B2, “Heteroaryl acid morpholinone compounds as MDM2 inhibitors for the treatment of cancer” (AMGEN INC., priority 2013, dated 2017)
